Columns and labels:
Format in all cases: cell-based, human
[1] = system: PC3M reporter cell line stably expressing PTB-GFP (ATP levels); assay: ATP quantitation assay (ATPLite); conditions: Table 4, PC3M cells, 24 hrs
Method: This follow-up assay was conducted to measure the effect of compounds on cell health by measuring ATP levels (ATPLite™). ATPLite™ is an ATP monitoring system based on firefly (Photinus pyralis) luciferase. The level of ATP in a metabolically active cell is a general marker for its viability. ATP levels are often reduced during necrosis or apoptosis. In this assay, the luciferase enzyme catalyzes the conversion of the added substrate D-luciferin to oxyluciferin and light with ATP. Thus, the emitted light is proportional to the ATP concentration. For this assay, the highly metastatic PC3M reporter cell line stably expressing the PTB-GFP was provided by Professor Sui Huang of Northwestern University. The media and cell culture reagents were purchased from Invitrogen (Carlsbad, Calif.), ATPLite™ came from PerkinElmer.

[2] = system: PNC prevalence in PC3M cell line stably expressing GFP-PTB; assay: High content assay for PNC detection (reduction of PNC prevalence); conditions: Table 4; PC3M GFP-PTB cells, 16 hrs
From the text: The quantitative output for this assay is the reduction of PNC prevalence. The PNC can be detected in living cells by the expression of a green fluorescent protein (GFP) tagged to the PNC localized protein, PTB. A PC3M cell line was used that stably expresses GFP-PTB to mark PNCs. This method eliminates the need for immunofluorescent staining.
The IN Cell Analyzer 1000 automated fluorescent imaging system (GE Healthcare, Piscataway, N.J.) was used for automated image acquisition. […] The instrument acquired images of each well in a 1536-well plate with a laser-based autofocus system. To score PNC prevalence in a high-content throughput, the Multi-Target Analysis (MTA) algorithm (GE Healthcare, Investigator v3.5) to identify individual cells and granules (PNCs) within these cells was used. The nucleus was segmented via a region growing method (50 μm^2 minimum area) with light shading and noise removal to allow “touching” nuclei to be separated. […] For this particular assay, PNC-positive cells were scored when 1 to 3 PNC granules were detected per nucleus. Cells that contained 0 granules were scored as PNC negative, and cells with >3 granules were assumed to be false positives (very few cells have more than 3 PNCs in one focus plane), and were also scored as PNC negative.

PC3M cells = assay: Soft agar colony formation assay (anchorage independent growth)
Method: Compound 2 was tested for its ability to affect anchorage independent growth in a soft agar assay, a stringent method to detect malignant transformation of cells in vitro.

## COC(=O)C[C@H](C(=O)OC)n1ncc2c(c(-c3ccccc3)cn2Cc2ccc(Br)cc2)c1=N [Compound 114]
[1]
  ATP IC50: inactive
[2]
  PNC IC50: inactive

## N=c1c2c(-c3ccccc3)c(-c3ccccc3)n(Cc3ccccc3)c2ncn1[C@H]1CC[C@H](O)CC1 [Compound 2, trans-4-(7-Benzyl-4-imino-5,6-diphenyl-4,7-dihydro-3H-pyrrolo[2,3-d]pyrimidin-3-yl)cyclohexanol]
PC3M cells; soft agar assay, 3.8, 18.6 nM
  cell viability: no impact on cell viability
PC3M cells; soft agar, after 14 days, 3.8, 18.6 nM
  number of colonies (anchorage independent growth): dose dependent reduction in the number of colonies
